Literature values in US6040300A, “Method of preventing colon cancer with vitamin D3 analogues” (Arch Development Corporation, priority 1995, dated 2000).

Assays:
[1] = test system: MHC class I and II antigens; settings: colonic tumor formation, AOM model; cited from earlier work
[2] = test system: chemically-induced colonic tumors; settings: in vivo; cited from earlier work
[3] = test system: AOM metabolism; settings: cited from earlier work
[4] = test system: c-myc mRNA; settings: HL-60 cells; cited from earlier work
[5] = test system: malignant cell lines, including several derived from human colon adenocarcinomas; settings: in vitro; cited from earlier work
[6] = test system: ornithine decarboxylase (ODC); settings: induced by various chemical carcinogens, preneoplastic period; cited from earlier work
[7] = test system: suppressor T cell; settings: cited from earlier work
[8] = test system: class II antigens; settings: monocytes and lymphocytes; cited from earlier work
[9] = test system: colon carcinogenesis induced by 1,2-dimethylhydrazine (DMH); settings: dietary supplementation; high fat diet; cited from earlier work

CN1C(C(=O)Nc2ccccn2)=C(O)c2ccccc2S1(=O)=O [piroxicam]
chemopreventive effect paralleled by MHC antigen alterations [1]: paralleled by alterations in the expression of these antigens

C[C@H](CCC(=O)O)[C@H]1CC[C@H]2[C@@H]3[C@@H](O)C[C@@H]4C[C@H](O)CC[C@]4(C)[C@H]3CC[C@]12C [ursodeoxycholic acid]
chemopreventive effect paralleled by MHC antigen alterations [1]: paralleled by alterations in the expression of these antigens

C=C1/C(=C\C=C2/CCC[C@]3(C)[C@@H]([C@H](C)CCCC(C)C)CC[C@@H]23)C[C@@H](O)C[C@@H]1O [1α(OH)D3, 1α-hydroxyvitamin D3]
protection against chemically-induced colonic tumors [2]: protect against the development of chemically-induced colonic tumors

c1cn[nH]c1 [pyrazole]
inhibition of AOM metabolism [3]: inhibition of AOM metabolism

C=C1/C(=C\C=C2/CCC[C@]3(C)[C@@H]([C@H](C)CCCC(C)(C)O)CC[C@@H]23)C[C@@H](O)C[C@@H]1O [1α,25(OH)2 D3, 1α,25-dihydroxyvitamin D3]
c-myc mRNA expression [4]: decrease c-myc mRNA expression in HL-60 cells | protection against chemically-induced colonic tumors [2]: protect against the development of chemically-induced colonic tumors | inhibition of proliferation [5]: inhibit the proliferation of a number of malignant cell lines in vitro | inhibition of increase in colonic mucosal ODC [6]: inhibit the increase in colonic mucosal ODC | suppressor T cell activity [7]: promote suppressor T cell activity | expression of class II antigens [8]: effect the expression of class II antigens by monocytes and lymphocytes

C=C1CC[C@H](O)C/C1=C/C=C1\CCC[C@]2(C)[C@@H]([C@H](C)CCCC(C)C)CC[C@@H]12 [vitamin D3, cholecalciferol]
inhibition of colon carcinogenesis incidence [9]: inhibit the incidence of colon carcinogenesis
